{
  "source": "patent US8575320B2",
  "about": "“Compositions and methods for separating, characterizing and administering soluble selenoglycoproteins” (Alltech, Inc., priority 2010, dated 2013)",
  "test_system": "gene expression in chicken breast muscle tissue",
  "test": "Microarray gene expression profile in breast muscle of broilers fed different selenium sources",
  "assay_type": "in vivo",
  "conditions": "P<0.05, FC>1.2 vs Control, 0.3 ppm Se diet, 18 days",
  "protocol": "Breast muscle tissue from chickens referenced in Example 3 was used to assess similarities and differences in gene expression profiles elicited by the following dietary treatments: Treatment 1-basal (Control); Treatment 2-Control+0.3 ppm sodium-selenite (SS); Treatment 3-Control+0.3 ppm SEL-PLEX; Treatment 6-0.3 ppm SGP fraction extracted from SEL-PLEX (SP) at pH 4.0. […] As such, experiments were conducted during development of embodiments of the invention in order to determine if animals receiving SGP fraction pH 4.0 experienced similar in vivo effects (e.g., gene expression changes) observed in SP fed animals, or whether significant, measurable differences existed.\nAt 18-days of age, five chickens from each treatment group (described above and in Tables 3 and 4) were randomly selected and euthanized by argon asphyxiation, followed by cervical dislocation. Samples of breast muscle tissue (1 gram) were rapidly removed and flash frozen in liquid nitrogen. Samples were stored at −80° C. until analyzed.\nTotal RNA was isolated from frozen tissue using TRIZOL reagent (INVITROGEN, Carlsbad, Calif.) according to the manufacturer's protocol and purified using a RNEASY kit (QIAGEN, Valencia, Calif.). Total RNA was quantified by absorbance at 260 nm and integrity was confirmed by agarose gel electrophoresis and ethidium bromide staining of the 28S and 18S bands. […]",
  "data": [
    {"smiles": "O=[Se](O)O", "note": "[SS, sodium selenite]", "values": [
      {"measurement": "number of genes significantly changed", "value": 283}
    ]}
  ]
}
